Data published in patent US4545932A, “Glucosaminyl muramyl peptide derivatives” (Dainippon Pharmaceutical Co., Ltd., priority 1982, dated 1985).

Assays:
Type in all cases: in vivo
Pyrogenicity in rabbits = details: for Pyrogenicity in rabbits: injected into ear vein, three rabbits per group
Experimental: Rabbits (each group: three rabbits) were used. Test compounds dissolved in a physiological saline solution were each injected into ear vein of rabbits. The difference between maximum body temperature within three hours after the injection of test compound and the body temperature before the injection was regarded as rise in body temperature. The degree of pyrogenicity was evaluated according to the following criterion: […]

various microorganisms = test: Antiinfectious effect in mice; details: similar experiments; no data given
Excerpt: (§1) Std-ddY male mice weighing about 23 g (each group: 8 mice) were used. Test compounds dissolved in a physiological saline solution were each intravenously administered to mice once a day 1, 2 and 3 days before the infection. Twenty-four hours after the final administration of test compounds, the mice were infected with various microorganisms suspended in saline (in case of Staphylococcus aureus and Candida albicans) or in Trypto-Soy Broth (manufactured by Eiken Chemical Co., Ltd., Japan) (in case of Pseudomonas aeruginosa and Escherichia coli) under the conditions as shown in Table 1. When the experiment was repeated twice or more, the data were pooled.
Besides, as to the compounds of Examples 8, 18, 36, 37 and 45 (derivatives of GMP3 -A), similar experiments were done.

[1] = tested on: Staphylococcus aureus No. 50774; test: Prophylactic effect on experimental infection, Staphylococcus aureus; details: Std-ddY male mice, 14 days after infection
Excerpt: as §1
(§2) ^a Test compounds were intravenously administered once a day 1, 2 and
(§3) 3 days before infection.
(§4) ^b Figures represent (number of survivals)/(number of animals tested)
(§5) and figures in parenthesis represent percent survival.

[2] = tested on: Pseudomonas aeruginosa No. 12; test: Prophylactic effect on experimental infection, Pseudomonas aeruginosa; details: Std-ddY male mice, 7 days after infection
Excerpt: as §1, §2, §3, §4, §5

Escherichia coli P-5101 = test: Prophylactic effect on experimental infection, Escherichia coli; details: Std-ddY male mice, 7 days after infection
Excerpt: as §1, §2, §3, §4, §5

Candida albicans 3170 = test: Prophylactic effect on experimental infection, Candida albicans; details: Std-ddY male mice, 7 days after infection
Excerpt: as §1
3170 fungal sus- infection
as §2, §3, §4, §5

[3] = similar experiments, no data given
[4] = Dose 0.05 mg/kg i.v. once a day 1, 2 and 3 days before infection
[5] = Dose 0.125 mg/kg i.v. once a day 1, 2 and 3 days before infection
[6] = Dose 0.2 mg/kg i.v. once a day 1, 2 and 3 days before infection
[7] = Dose 0.8 mg/kg i.v. once a day 1, 2 and 3 days before infection
[8] = Dose 3.1 mg/kg i.v. once a day 1, 2 and 3 days before infection
[9] = Dose 12.5 mg/kg i.v. once a day 1, 2 and 3 days before infection
[10] = Dose 0.0125 mg/kg i.v. once a day 1, 2 and 3 days before infection
[11] = Dose 50 mg/kg i.v. once a day 1, 2 and 3 days before infection

CC(=O)NC(CCCC(NC(=O)CCC(NC(=O)C(C)NC(=O)C(C)OC1C(NC(C)=O)C(O)OC(CO)C1OC1OC(CO)C(O)C(O)C1NC(C)=O)C(N)=O)C(N)=O)C(N)=O [Example 36, β-N-acetylglucosaminyl-(1→4)-N-acetylmuramyl-L-alanyl-D-isoglutaminyl-(L)-acetyl-(D)-meso-2,6-diaminopimelic acid-(D),(L)-diamide]
pyrogenicity compared with GMP3 -A (Pyrogenicity in rabbits; rabbit, in vivo): by far the less than that of GMP3 -A

CCCCCCCCCCNC(=O)C(CCCC(NC(C)=O)C(N)=O)NC(=O)CCC(NC(=O)C(C)NC(=O)C(C)OC1C(NC(C)=O)C(O)OC(CO)C1OC1OC(CO)C(O)C(O)C1NC(C)=O)C(N)=O (stereo not shown) [Example 37]
pyrogenicity compared with GMP3 -A (Pyrogenicity in rabbits; rabbit, in vivo): by far the less than that of GMP3 -A

CCCCCCCCCCCCCCCCCCNC(=O)C(CCCC(N)C(N)=O)NC(=O)CCC(NC(=O)C(C)NC(=O)C(C)OC1C(NC(C)=O)C(O)OC(CO)C1OC1OC(CO)C(O)C(O)C1NC(C)=O)C(N)=O.Cl [Example 45, β-N-acetylglucosaminyl-(1→4)-N-acetylmuramyl-L-alanyl-D-isoglutaminyl-(L)-meso-2,6-diaminopimelic acid-(D)-amide-(L)-octadecylamide hydrochloride]
pyrogenicity compared with GMP3 -A (Pyrogenicity in rabbits; rabbit, in vivo): by far the less than that of GMP3 -A

CCCCCCCCC=CCCCCCCCC(=O)NC(CCCC(NC(=O)CCC(NC(=O)C(C)NC(=O)C(C)OC1C(NC(C)=O)C(O)OC(CO)C1OC1OC(CO)C(O)C(O)C1NC(C)=O)C(N)=O)C(=O)[O-])C(N)=O.[Na+] (stereo not shown) [Example 8]
pyrogenicity compared with GMP3 -A (Pyrogenicity in rabbits; [3]): less pyrogenicity than GMP3 -A
antiinfectious effect compared with GMP3 -A (various microorganisms): more potent antiinfectious effect

CCCCCCCCCCCCCCCCCC(=O)NC(CCCC(NC(=O)CCC(NC(=O)C(C)NC(=O)C(C)OC1C(NC(C)=O)C(O)OC(CO)C1OC1OC(CO)C(O)C(O)C1NC(C)=O)C(N)=O)C(=O)[O-])C(N)=O.[Na+] (stereo not shown) [Example 18]
pyrogenicity compared with GMP3 -A (Pyrogenicity in rabbits; [3]): less pyrogenicity than GMP3 -A
antiinfectious effect compared with GMP3 -A (various microorganisms): more potent antiinfectious effect

CC(=O)NC1C(OC2C(CO)OC(O)C(NC(C)=O)C2OC(C)C(=O)NC(C)C(=O)NC(CCC(=O)NC(CCCC(N)C(N)=O)C(=O)NC(C)C(=O)O)C(N)=O)OC(CO)C(O)C1O [GMP4 -A, β-N-acetylglucosaminyl-(1→4)-N-acetylmuramyl-L-alanyl-D-isoglutaminyl-(L)-meso-2,6-diaminopimelic acid-(D)-amide-(L)-D-alanine, reference compound]
(number of survivals)/(number of animals tested) [1, 4]: 3/24
percent survival [1, 4]: 12.5%
(number of survivals)/(number of animals tested) [1, 5]: 0/8
percent survival [1, 5]: 0%
(number of survivals)/(number of animals tested) [1, 6]: 6/16
percent survival [1, 6]: 37.5%
(number of survivals)/(number of animals tested) [1, 7]: 11/32
percent survival [1, 7]: 34.4%
(number of survivals)/(number of animals tested) [1, 8]: 11/32
percent survival [1, 8]: 34.4%
(number of survivals)/(number of animals tested) [1, 9]: 23/32
percent survival [1, 9]: 71.9%
(number of survivals)/(number of animals tested) [2, 10]: 12/40
percent survival [2, 10]: 30%
(number of survivals)/(number of animals tested) [2, 4]: 16/48
percent survival [2, 4]: 33.3%
(number of survivals)/(number of animals tested) [2, 6]: 23/56
percent survival [2, 6]: 41.1%
(number of survivals)/(number of animals tested) [2, 7]: 31/72
percent survival [2, 7]: 43.1%
(number of survivals)/(number of animals tested) [2, 8]: 27/64
percent survival [2, 8]: 42.2%
(number of survivals)/(number of animals tested) [2, 9]: 32/48
percent survival [2, 9]: 66.7%
(number of survivals)/(number of animals tested) (Escherichia coli P-5101; [6]): 0/8
percent survival (Escherichia coli P-5101; [6]): 0%
(number of survivals)/(number of animals tested) (Escherichia coli P-5101; [7]): 0/8
percent survival (Escherichia coli P-5101; [7]): 0%
(number of survivals)/(number of animals tested) (Escherichia coli P-5101; [8]): 5/24
percent survival (Escherichia coli P-5101; [8]): 20.8%
(number of survivals)/(number of animals tested) (Escherichia coli P-5101; [9]): 10/24
percent survival (Escherichia coli P-5101; [9]): 41.7%
(number of survivals)/(number of animals tested) (Escherichia coli P-5101; [11]): 10/16
percent survival (Escherichia coli P-5101; [11]): 62.5%
(number of survivals)/(number of animals tested) (Candida albicans 3170; [8]): 2/8
percent survival (Candida albicans 3170; [8]): 25%
(number of survivals)/(number of animals tested) (Candida albicans 3170; [9]): 4/8
percent survival (Candida albicans 3170; [9]): 50%
(number of survivals)/(number of animals tested) (Candida albicans 3170; [11]): 6/8
percent survival (Candida albicans 3170; [11]): 75%
Pyrogenicity in rabbits (Pyrogenicity in rabbits; Dose 0.1 mg/rabbit): - (one animal showed rise in body temperature of 0.6 °C or more)
Pyrogenicity in rabbits (Pyrogenicity in rabbits; Dose 0.3 mg/rabbit): + (two or more animals showed rise in body temperature of 0.6 °C or more)
Pyrogenicity in rabbits (Pyrogenicity in rabbits; Dose 1 mg/rabbit): + (two or more animals showed rise in body temperature of 0.6 °C or more)
Pyrogenicity in rabbits (Pyrogenicity in rabbits; Dose 3 mg/rabbit): + (two or more animals showed rise in body temperature of 0.6 °C or more)
Pyrogenicity in rabbits (Pyrogenicity in rabbits; Dose 10 mg/rabbit): + (two or more animals showed rise in body temperature of 0.6 °C or more)
